Experimental data taken from patent US20150031714A1, “METHODS AND COMPOSITIONS FOR PREVENTION OF ALLERGIC REACTION” (Baylor College of Medicine, priority 2013, published 2015).

What was measured:
breast cancer cell lines = experiment: Apoptosis of breast cancer cell lines with constitutive Stat3 activation; format: cell-based
Stat3 (pY705) = experiment: Immunoblot assay of IL-6-mediated phosphorylation of Stat3 in HepG2 cells; format: cell-based; settings: Homo sapiens; Table 4; HepG2, compound 60 min, IL-6 30 ng/ml 30 min; read-out: pStat3 IC50
Description: Cells were then stimulated with IL-6 (30 ng/ml) for 30 min. Protein extracts of cells were separated by SDS-PAGE, blotted and developed serially with antibodies to pStat3, total Stat3 and β-actin. Blots were stripped between each antibody probing. The bands intensities of immunoblot were quantified by densitometry. The value of each pStat3 band's intensity was divided by each corresponding value of total Stat3 band intensity and the results normalized to the DMSO-treated control value and plotted as a function of the log compound concentration. The best-fit curves were generated based on 4 Parameter Logistic Model/Dose Response One Site/XLfit 4.2, IDBS. Each panel is representative of 3 or more experiments.
Immunoblot assay. The human hepatocellular carcinoma cell line (HepG2) was grown in 6-well plates under standard conditions. Cells were pretreated with compounds (0, 1, 3, 10, 30, 100 and 300 uM) for 1 hour then stimulated under optimal conditions with either interferon gamma (IFN-γ; 30 ng/ml for 30 min) to activate Stat1 or interleukin-6 (IL-6; 30 ng/ml for 30 min) to activate Stat3 (30-31). Cultures were then harvested and proteins extracted using high-salt buffer, as described (Shao et al., 2006). […]
EXP IIC. […] Band intensities are quantified by densitometry. […]

[1] = target: T1, Stat3-DNA (hSIE) complexes (Homo sapiens, UniProt P40763); experiment: Electrophoretic mobility shift assay (EMSA), Stat3:hSIE DNA binding; format: biochemical; settings: 300 μM, extracts of IL-6-stimulated HepG2 cells
T1 construct: high salt extracts were prepared from HepG2 cells incubated without or with IL-6 (30 ng/ml) for 30 minutes; endogenous in cells; host or cells: HepG2 (IL-6-stimulated), whole-cell high-salt extract
Description: Electrophoretic mobility shift assays were performed using whole-cell extracts prepared from HepG2 cells without and with stimulation with IL-6 (30 ng/ml) for 30 min. Protein (20 μg) was incubated with radiolabeled duplex oligonucleotide (hSIE) and DMSO without or with the indicated compounds (300 uM) for 60 minutes at 37° C. then separated by PAGE. The gel was dried and autoradiographed; the portion of the gel corresponding to the Stat3-bound hSIE band is shown. Data shown are representative of 2 studies.
Electrophoretic Mobility Shift Assay (EMSA): EMSA was performed using the hSIE radiolabeled duplex oligonucleotide as a probe as described (Tweardy et al., 1995). Briefly, high salt extracts were prepared from HepG2 cells incubated without or with IL-6 (30 ng/ml) for 30 minutes. Protein concentration was determined by Bradford Assay and 20 ug of extract was incubated with compound (300 uM) for 60 minutes at 37 °C. […] Gels were dried and autoradiographed.
Once in the nucleus, Stat3 dimers bind to specific DNA elements to activate and, in some instances, repress gene transcription. […] Compounds that bind to the phosphopeptide-binding site of Stat3 might be expected to do the same. […]

T1 sequence (P40763 2-770 limits assumed, one chain of several): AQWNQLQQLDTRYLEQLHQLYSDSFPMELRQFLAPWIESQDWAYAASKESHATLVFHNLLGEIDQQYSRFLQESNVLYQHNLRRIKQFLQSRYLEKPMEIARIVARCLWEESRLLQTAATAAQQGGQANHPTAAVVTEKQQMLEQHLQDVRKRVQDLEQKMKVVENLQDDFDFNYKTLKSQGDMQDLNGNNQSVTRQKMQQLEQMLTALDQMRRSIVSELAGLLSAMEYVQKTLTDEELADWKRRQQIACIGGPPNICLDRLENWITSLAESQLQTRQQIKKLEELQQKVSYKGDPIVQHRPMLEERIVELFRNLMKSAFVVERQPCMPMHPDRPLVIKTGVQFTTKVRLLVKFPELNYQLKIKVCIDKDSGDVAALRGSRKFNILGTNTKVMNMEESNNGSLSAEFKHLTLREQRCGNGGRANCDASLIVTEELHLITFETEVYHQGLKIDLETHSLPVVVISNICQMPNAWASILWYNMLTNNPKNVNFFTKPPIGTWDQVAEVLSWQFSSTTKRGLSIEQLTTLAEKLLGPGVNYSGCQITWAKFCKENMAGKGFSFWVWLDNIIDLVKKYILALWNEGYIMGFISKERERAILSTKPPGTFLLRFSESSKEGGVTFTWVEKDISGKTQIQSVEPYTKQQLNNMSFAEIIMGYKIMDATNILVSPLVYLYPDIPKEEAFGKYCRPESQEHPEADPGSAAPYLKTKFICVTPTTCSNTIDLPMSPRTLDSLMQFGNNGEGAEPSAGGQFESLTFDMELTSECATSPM

IC50 (Stat3 (pY705)) [µM]	SMILES	induction of apoptosis of breast cancer cell lines (breast cancer cell lines)	Stat3:hSIE band intensity (amount of hSIE shifted) [1]
91	O=C(O)c1ccc(C=CC(=O)c2ccc3c(c2)OCCO3)cc1 [Cpd3, 4-[3-(2,3-dihydro-1,4-benzodioxin-6-yl)-3-oxo-1-propen-1-yl]benzoic acid]	induced apoptosis preferentially	reduced the amount of hSIE shifted by half or greater
144	CCOc1cc(C=C2C(=O)c3ccccc3C2=O)cc(Cl)c1OCc1cccc(C(=O)O)c1 [Cpd3-2, 3-({2-chloro-4-[(1,3-dioxo-1,3-dihydro-2H-inden-2-ylidene)methyl]-6-ethoxyphenoxy}methyl)benzoic acid]		
